Reference: ChEMBL document CHEMBL3885861, “Open TG-GATES”

Organism: Rattus norvegicus
Experiment: Open TG-GATES - Regimen: Single
Format: toxicity, organism-based, Sprague-Dawley
Parameters: regimen Single, gender Male, age 6 weeks
Conditions: in vivo, po, 60 mg/kg, route gavage, dose level High; for APTT / Bas / Eos / Fbg / Hb / Ht / Lym / MCH / MCHC / MCV / Mono / Neu / PT / Plat / RBC / Ret / WBC: tissue Blood; for LIVER: tissue Liver; for A/G / ALP / ALT / AST / BUN / CRE / Ca / Cl / DBIL / GLC / IP / K / LDH / Na / PL / RALB / TBIL / TC / TG / TP / gamma-GTP: tissue Plasma

O=[N+]([O-])c1ccc(O)c([N+](=O)[O-])c1 [2,4-DINITROPHENOL]
TERMINAL_BW (3 h): 203.7 g
APTT (3 h): 17.2 s
Bas (3 h): 0%
Eos (3 h): 0.4%
Fbg (3 h): 232.6 mg/dL
Hb (3 h): 12.5 g/dL
Ht (3 h): 37.7%
Lym (3 h): 79.6%
MCH (3 h): 21.3 pg
MCHC (3 h): 33.4%
MCV (3 h): 63.9 fL
Mono (3 h): 7%
Neu (3 h): 13.2%
PT (3 h): 12.4 s
Plat (3 h): 127.8 x10_4/uL
RBC (3 h): 590 x10_4/ul
Ret (3 h): 8.6%
WBC (3 h): 75.8 x10_2/uL
LIVER (3 h): 8.6 g
A/G (3 h): 2.6
ALP (3 h): 1665.4 IU/L
ALT (3 h): 39.6 IU/L
AST (3 h): 95.6 IU/L
BUN (3 h): 19 mg/dL
CRE (3 h): 0.5 mg/dL
Ca (3 h): 11.4 mg/dL
Cl (3 h): 103.6 meq/L
DBIL (3 h): 0.014 mg/dL
GLC (3 h): 236.8 mg/dL
IP (3 h): 11.4 mg/dL
K (3 h): 4.5 meq/L
LDH (3 h): 215 IU/L
Na (3 h): 137 meq/L
PL (3 h): 129.4 mg/dL
RALB (3 h): 3.9 g/dL
TBIL (3 h): 0.026 mg/dL
TC (3 h): 77.6 mg/dL
TG (3 h): 56.8 mg/dL
TP (3 h): 5.4 g/dL
gamma-GTP (3 h): 0 IU/L
TERMINAL_BW (6 h): 206.8 g
APTT (6 h): 16.1 s
Bas (6 h): 0%
Eos (6 h): 0.4%
Fbg (6 h): 247.6 mg/dL
Hb (6 h): 12.6 g/dL
Ht (6 h): 38%
Lym (6 h): 70.4%
MCH (6 h): 21.8 pg
MCHC (6 h): 33.3%
MCV (6 h): 65.6 fL
Mono (6 h): 9.4%
Neu (6 h): 19.8%
PT (6 h): 11.7 s
Plat (6 h): 116.6 x10_4/uL
RBC (6 h): 580.4 x10_4/ul
Ret (6 h): 10%
WBC (6 h): 114 x10_2/uL
LIVER (6 h): 8.7 g
A/G (6 h): 2.7
ALP (6 h): 1501.4 IU/L
ALT (6 h): 36.2 IU/L
AST (6 h): 96.6 IU/L
BUN (6 h): 20.6 mg/dL
CRE (6 h): 0.6 mg/dL
Ca (6 h): 11.4 mg/dL
Cl (6 h): 106.6 meq/L
DBIL (6 h): 0.012 mg/dL
GLC (6 h): 245.4 mg/dL
IP (6 h): 10.2 mg/dL
K (6 h): 4.3 meq/L
LDH (6 h): 245.4 IU/L
Na (6 h): 138.6 meq/L
PL (6 h): 150.4 mg/dL
RALB (6 h): 4 g/dL
TBIL (6 h): 0.026 mg/dL
TC (6 h): 93.4 mg/dL
TG (6 h): 31.4 mg/dL
TP (6 h): 5.5 g/dL
gamma-GTP (6 h): 0 IU/L
TERMINAL_BW (9 h): 192.8 g
APTT (9 h): 16.1 s
Bas (9 h): 0%
Eos (9 h): 0.5%
Fbg (9 h): 244.8 mg/dL
Hb (9 h): 12.6 g/dL
Ht (9 h): 37.6%
Lym (9 h): 74.5%
MCH (9 h): 21.8 pg
MCHC (9 h): 33.5%
MCV (9 h): 65 fL
Mono (9 h): 5.8%
Neu (9 h): 19.2%
PT (9 h): 11.9 s
Plat (9 h): 117.2 x10_4/uL
RBC (9 h): 579.2 x10_4/ul
Ret (9 h): 8.8%
WBC (9 h): 92.8 x10_2/uL
LIVER (9 h): 7.3 g
A/G (9 h): 2.5
ALP (9 h): 1343 IU/L
ALT (9 h): 32.2 IU/L
AST (9 h): 87.2 IU/L
BUN (9 h): 20 mg/dL
CRE (9 h): 0.5 mg/dL
Ca (9 h): 11.1 mg/dL
Cl (9 h): 108 meq/L
DBIL (9 h): 0.02 mg/dL
GLC (9 h): 247.5 mg/dL
IP (9 h): 9.7 mg/dL
K (9 h): 4.7 meq/L
LDH (9 h): 154.8 IU/L
Na (9 h): 138.2 meq/L
PL (9 h): 146.5 mg/dL
RALB (9 h): 3.8 g/dL
TBIL (9 h): 0.0225 mg/dL
TC (9 h): 88.2 mg/dL
TG (9 h): 56.2 mg/dL
TP (9 h): 5.4 g/dL
gamma-GTP (9 h): 0.5 IU/L
TERMINAL_BW (24 h): 207.1 g
APTT (24 h): 15.7 s
Bas (24 h): 0%
Eos (24 h): 0.8%
Fbg (24 h): 263.6 mg/dL
Hb (24 h): 13.3 g/dL
Ht (24 h): 39.9%
Lym (24 h): 71%
MCH (24 h): 21.6 pg
MCHC (24 h): 33.3%
MCV (24 h): 64.7 fL
Mono (24 h): 8%
Neu (24 h): 20.4%
PT (24 h): 11.7 s
Plat (24 h): 123.2 x10_4/uL
RBC (24 h): 617.2 x10_4/ul
Ret (24 h): 8.5%
WBC (24 h): 120.4 x10_2/uL
LIVER (24 h): 10.7 g
A/G (24 h): 2.4
ALP (24 h): 1582.4 IU/L
ALT (24 h): 35.6 IU/L
AST (24 h): 73.8 IU/L
BUN (24 h): 19.2 mg/dL
CRE (24 h): 0.4 mg/dL
Ca (24 h): 11.6 mg/dL
Cl (24 h): 105.2 meq/L
DBIL (24 h): 0.018 mg/dL
GLC (24 h): 176.2 mg/dL
IP (24 h): 6.4 mg/dL
K (24 h): 4.6 meq/L
LDH (24 h): 149.2 IU/L
Na (24 h): 140 meq/L
PL (24 h): 173 mg/dL
RALB (24 h): 4 g/dL
TBIL (24 h): 0.018 mg/dL
TC (24 h): 93.4 mg/dL
TG (24 h): 169.6 mg/dL
TP (24 h): 5.7 g/dL
gamma-GTP (24 h): 0.8 IU/L
